This is an account of results in BindingDB's records for doi:10.1016/s0960-894x(03)00664-4 (Eli Lilly, 2003).

This assay has as its target Acetyl-CoA carboxylase 1 (Rattus norvegicus, UniProt P11497). The experiment in a line: Inhibitory concentration against rat heart ACC by the carboxylation of acetyl-CoA with [14C]-HCO3- to form [14C]-malonyl CoA; 18-40 uM.
Consider `CCO/N=C(\CC)C1C(=O)CC(c2c(C)cc(C)cc2C)CC1=O` (stereo not given) [2-{1-[(E)-Ethoxyimino]-propyl}-3-hydroxy-5-(2,4,6-trimethyl-phenyl)-cyclohex-2-enone], for which the midpoint of inhibition, the IC50, lay at 40 µM.
The figure for `CCC/C(=N\OCC)C1C(=O)CC(C2CCCSC2)CC1=O` (stereo not given) [2-{1-[(E)-Ethoxyimino]-butyl}-3-hydroxy-5-(tetrahydro-thiopyran-3-yl)-cyclohex-2-enone] is 40 µM; for `CCC/C(=N\OCC)C1C(=O)CC(CC(C)SCC)CC1=O` (stereo not given) [2-{1-[(E)-Ethoxyimino]-butyl}-5-(2-ethylsulfanyl-propyl)-3-hydroxy-cyclohex-2-enone] it is 40 µM.
Take `CCSC(C)CC1CC(=O)C(/C(CC)=N/OC/C=C/Cl)C(=O)C1` (stereo not given) [clethodim]: 40 µM corresponded to half-maximal inhibition (IC50).
The figure for `CC/C(=N\OC/C=C/Cl)C1C(=O)CC(C2CCOCC2)CC1=O` (stereo not given) [2-{1-[(E)-(E)-3-Chloro-allyloxyimino]-propyl}-3-hydroxy-5-(tetrahydro-pyran-4-yl)-cyclohex-2-enone] is 40 µM.
